{
  "source": "ChEMBL document CHEMBL4706659",
  "about": "“Design, synthesis and biological evaluation of novel 2,4-diaryl pyrimidine derivatives as selective EGFR inhibitors” (Eur J Med Chem, 2021)",
  "key": {"[1]": {"test": "Half life in Sprague-Dawley rat at 2 mg/kg, iv administered as single dose", "type": "ADME, organism-based", "settings": "in vivo"}, "[2]": {"tested_on": "NCI-H1975", "test": "Induction of apoptosis in human NCI-H1975 cells harboring EGFR T790M/L858R mutant assessed as necrotic cells at 1 nM measured after 48 hrs by Annexin-V-FITC/propidium iodide staining based flow cytometry (reference value: […])", "type": "functional"}, "[3]": {"tested_on": "NCI-H1975", "test": "Induction of apoptosis in human NCI-H1975 cells harboring EGFR T790M/L858R mutant assessed as late apoptotic cells at 1 nM measured after 72 hrs by Annexin-V-FITC/propidium iodide staining based flow cytometry (reference value: 0.13%)", "type": "functional"}, "[4]": {"test": "Selectivity ratio of IC50 for human L02 cells to IC50 for antiproliferative activity against human NCI-H1975 cells", "type": "toxicity, cell-based", "settings": "L02 cells versus NCI-H1975 cells, read-out: Ratio IC50"}, "[5]": {"species": "Homo sapiens", "test": "Selectivity ratio of IC50 for inhibition of recombinant human GST-tagged EGFR expressed in baculovirus expression system to IC50 for inhibition of recombinant human GST-tagged EGFR T790M/L858R double mutant (668 to 1210 residues) expressed in baculovirus expression system"}, "[6]": {"tested_on": "NCI-H1975", "test": "Antimigratory activity against human NCI-H1975 cells harboring EGFR T790M/L858R mutant assessed as inhibition of cell migration at 3 nM measured after 48 hrs by phase contrast microscopic analysis relative to control", "type": "functional"}, "[7]": {"test": "AUC (0 to t) in Sprague-Dawley rat at 2 mg/kg, iv administered as single dose", "type": "ADME, organism-based", "set-up": "dose 2 mg/kg", "settings": "in vivo"}, "[8]": {"tested_on": "NCI-H1975", "test": "Induction of apoptosis in human NCI-H1975 cells harboring EGFR T790M/L858R mutant assessed as early apoptotic cells at 10 nM measured after 48 hrs by Annexin-V-FITC/propidium iodide staining based flow cytometry (reference value: 0.82%)", "type": "functional"}, "[9]": {"tested_on": "NCI-H1975", "test": "Induction of apoptosis in human NCI-H1975 cells harboring EGFR T790M/L858R mutant assessed as early apoptotic cells at 1 nM measured after 72 hrs by Annexin-V-FITC/propidium iodide staining based flow cytometry (reference value: 0.72%)", "type": "functional"}, "[10]": {"tested_on": "NCI-H1975", "test": "Antiproliferative activity against human NCI-H1975 cells harboring EGFR T790M/L858R mutant by MTT assay", "type": "functional, cell-based"}, "[11]": {"tested_on": "NCI-H1975", "test": "Induction of apoptosis in human NCI-H1975 cells harboring EGFR T790M/L858R mutant assessed as viable cells at 10 nM measured after 48 hrs by Annexin-V-FITC/propidium iodide staining based flow cytometry (reference value: 98.63%)", "type": "functional", "settings": "read-out: Activity"}, "[12]": {"tested_on": "NCI-H1975", "test": "Induction of apoptosis in human NCI-H1975 cells harboring EGFR T790M/L858R mutant assessed as early apoptotic cells at 5 nM measured after 48 hrs by Annexin-V-FITC/propidium iodide staining based flow cytometry (reference value: 0.82%)", "type": "functional"}, "[13]": {"test": "Oral bioavailability in Sprague-Dawley rat at 10 mg/kg administered as single dose", "type": "ADME, organism-based", "settings": "in vivo"}, "[14]": {"tested_on": "NCI-H1975", "test": "Induction of apoptosis in human NCI-H1975 cells harboring EGFR T790M/L858R mutant assessed as late apoptotic cells at 10 nM measured after 48 hrs by Annexin-V-FITC/propidium iodide staining based flow cytometry (reference value: 0.04%)", "type": "functional"}, "[15]": {"molecular_target": "Epidermal growth factor receptor (Homo sapiens, UniProt P00533, L858R)", "sequence (P00533 25-1210 L858R limits assumed)": "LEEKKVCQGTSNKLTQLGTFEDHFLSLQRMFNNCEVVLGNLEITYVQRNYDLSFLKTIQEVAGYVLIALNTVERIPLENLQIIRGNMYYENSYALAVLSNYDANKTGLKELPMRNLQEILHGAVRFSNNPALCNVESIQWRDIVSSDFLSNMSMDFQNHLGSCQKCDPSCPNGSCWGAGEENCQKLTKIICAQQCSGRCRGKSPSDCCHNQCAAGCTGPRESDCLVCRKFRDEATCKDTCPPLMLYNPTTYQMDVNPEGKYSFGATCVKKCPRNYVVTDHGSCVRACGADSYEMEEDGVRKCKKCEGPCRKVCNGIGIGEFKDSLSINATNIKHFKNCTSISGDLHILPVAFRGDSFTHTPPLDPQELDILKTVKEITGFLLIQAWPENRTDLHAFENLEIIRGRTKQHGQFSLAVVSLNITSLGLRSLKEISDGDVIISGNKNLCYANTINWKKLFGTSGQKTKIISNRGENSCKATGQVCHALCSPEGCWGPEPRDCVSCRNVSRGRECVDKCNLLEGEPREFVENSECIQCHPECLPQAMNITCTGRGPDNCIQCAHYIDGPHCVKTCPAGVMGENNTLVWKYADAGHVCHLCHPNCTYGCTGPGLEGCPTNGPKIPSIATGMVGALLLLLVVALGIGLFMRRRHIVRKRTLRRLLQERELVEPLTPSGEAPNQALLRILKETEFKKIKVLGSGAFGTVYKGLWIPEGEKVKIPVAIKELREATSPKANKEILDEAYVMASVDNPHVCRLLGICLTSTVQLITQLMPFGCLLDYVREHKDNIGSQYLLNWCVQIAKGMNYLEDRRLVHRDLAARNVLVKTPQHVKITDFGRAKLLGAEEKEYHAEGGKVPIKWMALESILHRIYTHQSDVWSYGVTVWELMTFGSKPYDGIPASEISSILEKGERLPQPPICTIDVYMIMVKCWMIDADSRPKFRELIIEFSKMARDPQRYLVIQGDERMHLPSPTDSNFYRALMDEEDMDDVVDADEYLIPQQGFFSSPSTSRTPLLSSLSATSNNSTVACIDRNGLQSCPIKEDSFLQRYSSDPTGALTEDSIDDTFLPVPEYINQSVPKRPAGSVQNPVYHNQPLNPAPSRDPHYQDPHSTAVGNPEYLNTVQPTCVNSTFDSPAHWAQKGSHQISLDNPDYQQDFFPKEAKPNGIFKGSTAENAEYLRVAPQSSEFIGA", "test": "Inhibition of human recombinant GST-tagged EGFR L858R mutant expressed in baculovirus expression system using tyrosine 4 peptide as substrate after 60 mins in presence of ATP FRET based Z'-LYTE assay"}, "[16]": {"molecular_target": "Epidermal growth factor receptor (Homo sapiens, UniProt P00533, L858R/T790M)", "sequence (P00533 25-1210 T790M/L858R limits assumed)": "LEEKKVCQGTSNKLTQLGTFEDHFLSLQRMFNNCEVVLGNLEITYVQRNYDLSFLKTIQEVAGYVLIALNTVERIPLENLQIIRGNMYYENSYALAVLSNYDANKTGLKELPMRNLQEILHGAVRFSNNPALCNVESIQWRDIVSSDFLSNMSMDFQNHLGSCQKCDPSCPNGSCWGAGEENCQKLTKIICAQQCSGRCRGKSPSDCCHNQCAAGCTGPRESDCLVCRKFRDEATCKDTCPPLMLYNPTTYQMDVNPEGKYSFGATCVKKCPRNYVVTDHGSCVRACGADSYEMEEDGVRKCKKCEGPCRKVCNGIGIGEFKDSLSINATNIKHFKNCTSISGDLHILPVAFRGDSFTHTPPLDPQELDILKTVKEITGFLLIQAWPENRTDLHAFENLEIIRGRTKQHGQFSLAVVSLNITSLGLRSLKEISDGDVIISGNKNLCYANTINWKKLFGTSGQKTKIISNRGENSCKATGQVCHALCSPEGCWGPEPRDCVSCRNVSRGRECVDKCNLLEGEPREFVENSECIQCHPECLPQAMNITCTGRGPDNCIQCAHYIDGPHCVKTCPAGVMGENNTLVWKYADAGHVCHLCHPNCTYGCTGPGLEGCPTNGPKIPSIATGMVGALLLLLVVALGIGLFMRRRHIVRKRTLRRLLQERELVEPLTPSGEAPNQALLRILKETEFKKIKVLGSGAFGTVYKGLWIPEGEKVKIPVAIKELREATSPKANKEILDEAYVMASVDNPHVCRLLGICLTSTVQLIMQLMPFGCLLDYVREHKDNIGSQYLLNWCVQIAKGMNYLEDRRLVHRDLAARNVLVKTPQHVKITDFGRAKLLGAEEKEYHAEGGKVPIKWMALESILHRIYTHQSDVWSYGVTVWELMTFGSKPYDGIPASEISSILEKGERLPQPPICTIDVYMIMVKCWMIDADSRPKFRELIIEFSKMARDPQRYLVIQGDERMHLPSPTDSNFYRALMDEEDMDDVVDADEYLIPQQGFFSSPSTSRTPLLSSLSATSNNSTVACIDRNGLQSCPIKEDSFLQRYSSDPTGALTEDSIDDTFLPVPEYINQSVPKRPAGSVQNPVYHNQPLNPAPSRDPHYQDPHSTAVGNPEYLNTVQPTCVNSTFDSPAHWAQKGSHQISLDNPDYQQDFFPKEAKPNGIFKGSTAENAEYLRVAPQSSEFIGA", "test": "Inhibition of recombinant human GST-tagged EGFR T790M/L858R double mutant (668 to 1210 residues) expressed in baculovirus expression system using Tyr 4 as substrate incubated for 60 mins by Z'-Lyte assay"}, "[17]": {"tested_on": "NCI-H1975", "test": "Induction of apoptosis in human NCI-H1975 cells harboring EGFR T790M/L858R mutant assessed as viable cells at 5 nM measured after 48 hrs by Annexin-V-FITC/propidium iodide staining based flow cytometry (reference value: 98.63%)", "type": "functional", "settings": "read-out: Activity"}, "[18]": {"test": "Half life in Sprague-Dawley rat at 10 mg/kg, po administered as single dose", "type": "ADME, organism-based", "settings": "in vivo"}, "[19]": {"tested_on": "NCI-H1975", "test": "Antitumor activity against human NCI-H1975 cells harboring EGFR T790M/L858R mutant xenografted in nude mouse assessed as tumor volume at 15 mg/kg, po administered once daily for 7 days (reference value: 843 mm3)", "type": "functional", "settings": "time 7 day"}, "[20]": {"tested_on": "NCI-H1975", "test": "Induction of mitochondrial membrane potential loss in human NCI-H1975 cells harboring EGFR T790M/L858R mutant assessed as cell population with mitochondrial membrane potential collapse at 1 nM measured after 24 hrs by JC1 staining based fluorescence microscopic analysis (reference value: 5.49%)", "type": "functional"}, "[21]": {"tested_on": "PC-9", "test": "Antiproliferative activity against human PC-9 cells harboring EGFR L858R mutant by MTT assay", "type": "functional, cell-based"}, "[22]": {"tested_on": "NCI-H1975", "test": "Induction of apoptosis in human NCI-H1975 cells harboring EGFR T790M/L858R mutant assessed as early apoptotic cells at 5 nM measured after 72 hrs by Annexin-V-FITC/propidium iodide staining based flow cytometry (reference value: 0.72%)", "type": "functional"}, "[23]": {"tested_on": "NCI-H1975", "test": "Induction of apoptosis in human NCI-H1975 cells harboring EGFR T790M/L858R mutant assessed as necrotic cells at 10 nM measured after 48 hrs by Annexin-V-FITC/propidium iodide staining based flow cytometry (reference value: […])", "type": "functional"}, "[24]": {"tested_on": "NCI-H1975", "test": "Antimigratory activity against human NCI-H1975 cells harboring EGFR T790M/L858R mutant assessed as inhibition of cell migration at 3 nM measured after 24 hrs by phase contrast microscopic analysis relative to control", "type": "functional"}, "[25]": {"tested_on": "NCI-H1975", "test": "Induction of mitochondrial membrane potential loss in human NCI-H1975 cells harboring EGFR T790M/L858R mutant assessed as cells with intact mitochondrial membrane potential at 1 nM measured after 24 hrs by JC1 staining based fluorescence microscopic analysis (reference value: 94.51%)", "type": "functional"}, "[26]": {"tested_on": "NCI-H1975", "test": "Antitumor activity against human NCI-H1975 cells harboring EGFR T790M/L858R mutant xenografted in nude mouse assessed as tumor growth inhibition at 15 mg/kg, po administered once daily for 7 days relative to control", "type": "functional", "settings": "Mus musculus, NCI-H1975, po, 168 h, time 7 day, read-out: TGI"}, "[27]": {"tested_on": "NCI-H1975", "test": "Induction of apoptosis in human NCI-H1975 cells harboring EGFR T790M/L858R mutant assessed as necrotic cells at 10 nM measured after 72 hrs by Annexin-V-FITC/propidium iodide staining based flow cytometry (reference value: 0.49%)", "type": "functional"}, "[28]": {"test": "MRT in Sprague-Dawley rat at 2 mg/kg, iv administered as single dose", "type": "ADME, organism-based", "settings": "in vivo"}, "[29]": {"test": "AUC (0 to t) in Sprague-Dawley rat at 10 mg/kg, po administered as single dose", "type": "ADME, organism-based", "set-up": "dose 10 mg/kg", "settings": "in vivo"}, "[30]": {"tested_on": "NCI-H1975", "test": "Induction of apoptosis in human NCI-H1975 cells harboring EGFR T790M/L858R mutant assessed as necrotic cells at 5 nM measured after 48 hrs by Annexin-V-FITC/propidium iodide staining based flow cytometry (reference value: […])", "type": "functional"}, "[31]": {"test": "AUC (0 to infinity) in Sprague-Dawley rat at 2 mg/kg, iv administered as single dose", "type": "ADME, organism-based", "set-up": "route intravenous, time infinity, dose 2 mg/kg", "settings": "in vivo"}},
  "note": "pIC50: −log10 of the molar value.",
  "data": [
    {"molecule": "C=CC(=O)Nc1cc(Nc2nccc(-c3cn(C4CC4)c4ccccc34)n2)c(OC)cc1[S+]([O-])CCN(C)C", "note": "(stereo unspecified)", "values": [
      {"measurement": "half-life", "setting": "[1]", "result": 0.7, "unit": "h"},
      {"measurement": "Activity", "setting": "[2]", "result": 5.52, "unit": "%"},
      {"measurement": "Activity", "setting": "[3]", "result": 2.93, "unit": "%"},
      {"measurement": "selectivity ratio", "setting": "[4]", "result": 584},
      {"measurement": "Ratio IC50", "setting": "[5]", "result": 15.8},
      {"measurement": "inhibition at 0.003 µM", "setting": "[6]", "result": 53, "unit": "%"},
      {"measurement": "AUC(0-t)", "setting": "[7]", "result": 335, "unit": "ng·h/mL"},
      {"measurement": "Activity", "setting": "[8]", "result": 15.92, "unit": "%"},
      {"measurement": "Activity", "setting": "[9]", "result": 17.25, "unit": "%"},
      {"measurement": "pIC50", "setting": "[10]", "result": 8.10},
      {"measurement": "viability at 0.01 µM", "setting": "[11]", "result": 41.1, "unit": "%"},
      {"measurement": "Activity", "setting": "[12]", "result": 21.73, "unit": "%"},
      {"measurement": "bioavailability", "setting": "[13]", "result": 40.4, "unit": "%"},
      {"measurement": "Activity", "setting": "[14]", "result": 21.25, "unit": "%"},
      {"measurement": "pIC50", "setting": "[15]", "result": 8.96},
      {"measurement": "pIC50", "setting": "[16]", "result": 9.59},
      {"measurement": "viability at 0.005 µM", "setting": "[17]", "result": 68.2, "unit": "%"},
      {"measurement": "half-life", "setting": "[18]", "result": 2.51, "unit": "h"},
      {"measurement": "Activity", "setting": "[19]", "result": 56, "unit": "mm3"},
      {"measurement": "Activity", "setting": "[20]", "result": 19.29, "unit": "%"},
      {"measurement": "pIC50", "setting": "[21]", "result": 8.40},
      {"measurement": "Activity", "setting": "[22]", "result": 19.59, "unit": "%"},
      {"measurement": "Activity", "setting": "[23]", "result": 21.2, "unit": "%"},
      {"measurement": "inhibition at 0.003 µM", "setting": "[24]", "result": 39, "unit": "%"},
      {"measurement": "Activity", "setting": "[25]", "result": 80.71, "unit": "%"},
      {"measurement": "inhibition in vivo at 15 mg/kg", "setting": "[26]", "result": 93.3, "unit": "%"},
      {"measurement": "Activity", "setting": "[27]", "result": 5.38, "unit": "%"},
      {"measurement": "MRT", "setting": "[28]", "result": 1.01, "unit": "h"},
      {"measurement": "AUC(0-t)", "setting": "[29]", "result": 676, "unit": "ng·h/mL"},
      {"measurement": "Activity", "setting": "[30]", "result": 7.42, "unit": "%"},
      {"measurement": "AUC(0-inf)", "setting": "[31]", "result": 340, "unit": "ng·h/mL"}
    ]}
  ]
}
